Measurements published in ChEMBL document CHEMBL5335853, “Acremosides A-G, Sugar Alcohol-Conjugated Acyclic Sesquiterpenes from a Sponge-Derived Acremonium Species” (J Nat Prod, 2024).

Key:
Edwardsiella tarda = test: Antimicrobial activity against Edwardsiella tarda ATCC 15947 assessed as inhibition of microbial growth by CLSI protocol based two-fold serial broth microdilution method; format: functional
Bacillus subtilis = test: Antimicrobial activity against Bacillus subtilis ATCC 6633 assessed as inhibition of microbial growth by CLSI protocol based two-fold serial broth microdilution method; format: functional
Hepatitis C virus = test: Antiviral activity against HCV infected in human Huh-7.5 cells assessed as inhibition of viral replication incubated for 72 hrs by qRT-PCR analysis; format: functional, organism-based, Hepacivirus hominis; conditions: Huh7.5, 72 h
Pseudomonas aeruginosa = test: Antimicrobial activity against Pseudomonas aeruginosa ATCC 27853 assessed as inhibition of microbial growth by CLSI protocol based two-fold serial broth microdilution method; format: functional
[1] = Cytotoxicity against human Huh7.5 cells assessed as reduction in cell viability by CCK-8 assay; format: toxicity, cell-based, Huh-7.5
Escherichia coli = test: Antimicrobial activity against Escherichia coli ATCC 25922 assessed as inhibition of microbial growth by CLSI protocol based two-fold serial broth microdilution method; format: functional
[2] = Selectivity index, ratio of CC50 for cytotoxicity against human Huh7.5 cells to EC50 for antiviral activity against HCV infected in human Huh7.5 cells; format: toxicity, cell-based; conditions: read-out: Ratio CC50/EC50
Edwardsiella ictaluri = test: Antimicrobial activity against Edwardsiella ictaluri ATCC 33202 assessed as inhibition of microbial growth by CLSI protocol based two-fold serial broth microdilution method; format: functional
[3] = system: Staphylococcus epidermidis; test: Antimicrobial activity against Staphylococcus epidermidis ATCC 12228 assessed as inhibition of microbial growth by CLSI protocol based two-fold serial broth microdilution method; format: functional
Klebsiella pneumoniae = test: Antimicrobial activity against Klebsiella pneumoniae ATCC 700603 assessed as inhibition of microbial growth by CLSI protocol based two-fold serial broth microdilution method; format: functional
Staphylococcus aureus = test: Antimicrobial activity against Staphylococcus aureus ATCC 29213 assessed as inhibition of microbial growth by CLSI protocol based two-fold serial broth microdilution method; format: functional

| Structure (SMILES) | MIC (Edwardsiella tarda) [µg/mL] | MIC (Bacillus subtilis) [µg/mL] | EC50 (Hepatitis C virus) [µM] | MIC (Pseudomonas aeruginosa) [µg/mL] | CC50 [1] [µM] | MIC (Escherichia coli) [µg/mL] | selectivity ratio [2] | MIC (Edwardsiella ictaluri) [µg/mL] | MIC [3] [µg/mL] | MIC (Klebsiella pneumoniae) [µg/mL] | MIC (Staphylococcus aureus) [µg/mL] |
| --- | --- | --- | --- | --- | --- | --- | --- | --- | --- | --- | --- |
| CC(C)=C[C@@H]1C[C@](C)(O)[C@@H](C[C@@H](OC(=O)Cc2ccccc2)/C(C)=C/CO[C@@H]([C@H](O)[C@H](O)CO)[C@H](O)CO)O1 | ≥ 128 | ≥ 128 | 8.8 | ≥ 128 | > 200 | ≥ 128 | > 23 | ≥ 128 | ≥ 128 | ≥ 128 | ≥ 128 |
| CC(C)=C[C@H]1C[C@](C)(O)[C@@H](C[C@@H](OC(=O)Cc2ccccc2)/C(C)=C/CO[C@@H]([C@H](O)[C@H](O)CO)[C@H](O)CO)O1 | ≥ 128 | ≥ 128 | 16 | ≥ 128 | > 200 | ≥ 128 | > 12 | ≥ 128 | ≥ 128 | ≥ 128 | ≥ 128 |
| COC[C@@H](O)[C@@H](OC/C=C(\C)[C@@H](C[C@@H](O)[C@@](C)(O)CCC=C(C)C)OC(=O)Cc1ccccc1)[C@H](O)[C@H](O)CO | ≥ 128 | ≥ 128 | 14 | ≥ 128 | 55 | ≥ 128 | > 4 | ≥ 128 | ≥ 128 | ≥ 128 | ≥ 128 |
| CC(C)=CCC[C@](C)(O)[C@H](O)C[C@@H](OC(=O)Cc1ccccc1)/C(C)=C/CO[C@@H]([C@H](O)[C@H](O)CO)[C@H](O)CO | ≥ 128 | ≥ 128 | 4.8 | ≥ 128 | > 200 | ≥ 128 | > 42 | ≥ 128 | ≥ 128 | ≥ 128 | ≥ 128 |
| COC[C@@H](O)[C@@H](OC/C=C(\C)[C@@H](C[C@H]1O[C@H](C=C(C)C)C[C@]1(C)O)OC(=O)Cc1ccccc1)[C@H](O)[C@H](O)CO | ≥ 128 | ≥ 128 | 12 | ≥ 128 | > 200 | ≥ 128 | > 17 | ≥ 128 | ≥ 128 | ≥ 128 | ≥ 128 |
| CC(C)=CCC[C@](C)(O)[C@H](O)C[C@@H](OC(=O)Cc1ccccc1)/C(C)=C/CO[C@@H]([C@H](O)[C@@H](C)O)[C@H](O)CO | ≥ 128 | ≥ 128 | 7.9 | ≥ 128 | > 200 | ≥ 128 | > 25 | ≥ 128 | ≥ 128 | ≥ 128 | ≥ 128 |
| CC(C)=CCC[C@](C)(O)[C@H](O)C[C@@H](OC(=O)Cc1ccccc1)/C(C)=C/COC([C@H](O)CO)[C@H](O)CO | ≥ 128 | ≥ 128 | 6.5 | ≥ 128 | > 200 | ≥ 128 | > 31 | ≥ 128 | ≥ 128 | ≥ 128 | ≥ 128 |
| CC(C)OC(=O)[C@H](C)N[P@](=O)(OC[C@H]1O[C@@H](n2ccc(=O)[nH]c2=O)[C@](C)(F)[C@@H]1O)Oc1ccccc1 [SOFOSBUVIR] | – | – | 0.09 | – | > 200 | – | > 2220 | – | – | – | – |
